# Measured values reported in patent US10525070B2, “Method of treating heart failure” (priority 2015, dated 2020).
# Where “and” joins values, the source holds several entries; their conditions need not be identical. Equal values may be shown once. Entries after “also recorded” stand apart in the source; their conditions may differ.
# Experiments:
# Type in all cases: in vivo
# Tfr1^hrt/hrt mice [1] = experiment: NR rescue experiment, survival of Tfr1^hrt/hrt mice
# From the text: 129/SvEv mice bearing a floxed Tfrc allele were crossed with transgenic C57BL/6 mice expressing Cre recombinase under the control of the a-MyHC promoter. Backcrossing was with 129/SvEv mice for more than 10 generations and after the initial phenotypic characterization, all studies used mice with a homogeneous 129/SvEv background. Animals were genotyped by polymerase chain reaction (PCR) using genomic DNA from toe clips. Primers for Tfrc alleles, Cre, Hjv alleles, and Rosa26 are described in Table 1.
# One-way ANOVA was performed for comparisons between two means, including when the comparison was between the means of WT and Tfr1^hrt/hrt. Survival analysis was performed using Logrank in Graphpad software. P<0.05 was considered statistically significant.
# An independent statistical analysis for survival analysis was also performed as described below.
# (§1) Survival time was modeled as follows: Tij=μ+Bj+sij
# (§2) Where Tij was the survival time (in days) for the i-th mouse in the j-th group. The model explained this in terms of a baseline mean m, an effect bj for the j-th group (relative to baseline) and inter-mouse variation eij. The model was fit using ordinary least squares (1-way ANOVA).
# (§3) For the NR rescue experiment, the baseline was Tfr1^hrt/hrt with PBS. There was no significant improvement in mean survival when using just Tfr1^hrt/hrt (0.625 days, p-value=0.26, Table 3). There was, however, a significant improvement in the Tfr1^hrt/hrt with NR group (2.29 days, p-value<0.001). For statistical calculations, lifespan was over 19.6 days for wild-type mice.
# WT mice = experiment: NR rescue experiment, survival of WT mice with NR; details: baseline Tfr1^hrt/hrt with PBS, for calculations lifespan was over 19.6 days for wild-type mice
# From the text: as §1, §2, §3
# [2] = system: hearts from Tfr1^hrt/hrt mice; experiment: UPR^MT mRNA levels in hearts of NR-treated mice (real-time PCR); details: P10 hearts, NR treated vs untreated, FIGS. 19A and 19B
# Description: Total heart RNA was isolated from flash-frozen tissue using the RNeasy Fibrous Tissue Mini Kit (Qiagen) and reverse transcribed as described in Schmidt et al. (2008) Cell Metab. […] For the microarray analysis, the Affymetrix GeneChip® Mouse Genome 430 2.0 Array was used. A minimum of 200 ng RNA was used for each sample. RNA samples were processed by the Duke Microarray Shared Resource Services. Transcript abundance was quantified by 2-step real-time PCR, using amplification conditions as described in Schmidt et al. (2008) Cell Metab. […] Primers are summarized in Table 2 and Rpl19 was used as an internal control.
# [3] = system: hearts from Tfr1^hrt/hrt mice; experiment: p62 protein levels in hearts of NR-treated mice; details: NR treated vs untreated, FIGS. 20A and 20B
# From the text: Atg9A (Novus Biologicals).
# Tfr1^hrt/hrt mice [4] = experiment: NAD/NADH ratios in tissue with and without NR treatment; details: measurements from tissue
compound,measurement,setting,value
"NC(=O)c1ccc[n+]([C@@H]2O[C@H](CO)[C@@H](O)[C@H]2O)c1 [NR, nicotinamide riboside]",Extension of lifespan,"Tfr1^hrt/hrt mice [1]; Tfr1^hrt/hrt mice, NR administration, FIG. 7E",up to 5 days
same,Prolongation of lifespans,"Tfr1^hrt/hrt mice [1]; Tfr1^hrt/hrt mice, NR vs vehicle, FIG. 7E",up to 50%
same,Effect: improvement in mean survival relative to baseline,"Tfr1^hrt/hrt mice [1]; Tfr1^hrt/hrt with NR, 750 mg/kg IP daily from P5, baseline Tfr1^hrt/hrt with PBS (10.375), 1-way ANOVA model, p<0.001, 750 mg/kg",2.29 days and 2.292 days
same,Lifespan of treated mice (in words),Tfr1^hrt/hrt mice [1]; in the absence of iron therapy,increased the lifespan
same,Effect: survival relative to baseline,WT mice,19.625 days
same,"Expression of UPR^MT mRNAs (Atf4, Lonp1, Ddit3, Fgf21) in heart",[2],decreased expression; also recorded: blunted
same,Accumulation of p62 in the hearts,[3],alleviated the accumulation
same,NAD/NADH ratios,Tfr1^hrt/hrt mice [4],inconclusive
